The values that follow come from patent US6117875A, “Pyrido (2,3-B) pyrazine derivatives” (Fujisawa Pharmaceutical Co., Ltd., priority 1995, dated 2000).

One may read the pIC50 as the IC50 on a negative log10 scale, so that one unit is a factor of ten.

Assay [1] concerns TNF-α production in human mononuclear cells. Description: Inhibition on TNF-α production in human mononuclear cells. Type of assay: cell-based. As to conditions: TNF-α by ELISA, human MNC, 1 μg/ml LPS (E. coli), 37°C, 16 hours. The method, then: Blood was drawn from healthy volunteers with heparin. The mononuclear cell (MNC) fraction was obtained by gradient centrifugation (1800 rpm, 15 minutes), diluted with the same volume of RPMI-1640 culture medium, over Ficoll-Paque (Pharmacia LKB Biotechnology). MNC were washed twice with RPMI-1640. Then, MNC were resuspended in RPMI-1640 culture medium supplemented with 2 mM L-glutamine and 1% fetal bovine serum. MNC were incubated at 37pbC. for 16 hours in 96-well micro culture plate at a concentration of 3×10^5 cells/well with or without 1 μg/ml lipopolysaccharide (LPS) (from E. coli) and various amounts of test compound. At the end of incubation, the supernatant was obtained and its TNF-α active was measured by enzyme-linked immunosorbent assay (ELISA). ELISA was performed with TNF-α ELISA kit (Otsuka Pharmaceutical Co., Ltd.).
On the technique in general: An ELISA detects its analyte on a solid surface through an enzyme-linked reagent.

In assay [2] the target is U937 phosphodiesterase IV (PDE IV). Description: Inhibition of U937 phosphodiesterase IV (PDE IV). As to conditions: PDE IV preparation from U937 cells, [3H]-cAMP, 10 μM CI-930 (PDE III inhibitor) present, 30°C, pH 8.0. Format: biochemical. The method, then: Harvested U937 was freezed in -80pbC. and throwed to destroy the cell body. The pellet of destroyed cell was washed by Phosphate-buffered saline (PBS).
The washed cell pellet was homogenized with Dounce homogenizer (20 strokes) in homogenizing buffer (0.5% deoxycholate [DOC], 5 mM 2-mercaptoethanol, 1 μM leupeptin, 100 μM PMSF, 20 μM p-tosyl-L-lysine-chloromethyl ketone [TLCK] in PBS). The homogenate was centrifuged at 100,000 g×90 minutes (4pbC.) and the supernatant containing PDE IV activity was dialyzed against dialysis buffer, which was the same component as homogenizing buffer without DOC. The dialyzed supernatant of homogenate was stored in freezer (-80pbC.) as PDE IV enzyme preparation.
Enzyme preparation was diluted in assay buffer (10 mM Tris-HCl, 5 mM MgCl, 1 mM 2-Mercaptoethanol [pH 8.0]). In advance the rate of dilution was choosen every new lot of homogenizing preparation. For blank, a part of the enzyme preparation was boiled for 10 minutes. […]
The reaction tube was preincubated in a water bath (30pbC.) for 5 minutes, then 100 μl [^3 H]-cAMP (37.0 MBq/ml [^3 H]-cAMP: 4 μM cold cAMP=1:800) was added thereto. […] The mixture was centrifuged at 1000 rpm×5 minutes, and then 500 μl of the supernatant was added to 10 ml scintillation fluid in appropriate vial, vortexed, and counted for [^3 H].
The inhibitory activity was calculated according to the following equation: [formula]

The structures appear in SMILES notation. pIC50: −log10 of the molar value.

Take `CC(=O)Nc1ccc(/C=C/C(=O)Nc2cccc(-c3cccc(-n4c(=O)c(Cc5cccnc5)nc5cccnc54)c3)c2)cn1` [Test compound (a), 4-[3-[3-[(E)-3-(6-acetamido-3-pyridyl)acryloylamino]phenyl]phenyl]-2-(3-pyridylmethyl)-3-oxo-3,4-dihydropyrido[2,3-b]pyrazine]: the pIC50 is 7.62 in assay [1] and 7.80 in assay [2].
